Converted amounts (≈) assume the structure as drawn.
Assays:
[1] = tested on: E. coli JM83 cells harboring pUC19; test: Minimum inhibitory concentrations on LB plates, cells harboring pUC19; assay type: cell-based; conditions: Escherichia coli, cells with pUC19, 37 °C, 20 h, same for 3.5 × 10^5 and 3.5 × 10^3 cells
Description: (§1) The E. coli wild-type cells harboring pUC19 or pSP007 plasmid were grown overnight in LB medium containing ampicillin. The cells were diluted 10- and 1000-times, and 5 µl of each dilution (corresponding to 3.5×10^5 cells and 3.5×10^3 cells, respectively) was spotted on LB plates containing serial dilutions of kanamycin, chloramphenicol, spectinomycin, tetracycline and DHCP. Plates were incubated at 37° C. for 20 h. […] The MIC values for cells harboring pUC19 and pSP007 were same for spectinomycin, chloramphenicol and tetracycline. The MIC value was two times higher for kanamycin for the cells harboring pSP007 than the cells with pUC19. The MIC value for DHCP on the other hand was 8 times higher for the cells-harboring pSP007 than that for the cells with pUC19.
(§2) MICs for both dilutions of the cells (3.5×10^5 and 3.5×10^3) were the same.

[2] = tested on: E. coli JM83; test: Colony formation ability of E. coli on LB plates containing DHCP; assay type: cell-based, Escherichia coli
Description: (§3) A. The JM83 cells were grown in LB medium up to Klett unit of 50 and DHCP was added at various concentrations (0-400 µM). After the growth reached to Klett unit of 90-100, cells were diluted with medium containing respective concentrations of DHCP and growth was further monitored. DHCP concentration: 0 . mu.M, open squares; 50 . mu.M, closed diamonds; 100 µM, open circles; 250 . mu.M, open diamonds; 400 . mu.M closed squares. [0023] B. Overnight grown cells of E. coli JM83 were diluted appropriately and plated on LB plates containing different concentrations of DHCP (0-350 . mu.M). The number of colonies on the plate without DHCP was taken as 100% and the other numbers were expressed as relative percentages.
To check the colony formation ability of E. coli at various concentrations of DHCP, cells grown overnight in LB medium were diluted appropriately and plated on LB plates containing DHCP (0-350 . mu.M). After incubation at 37. degree. C., the number of colonies on each plate were counted. The number of colonies on the control plate without DHCP was taken as 100% and the other numbers were expressed as relative percentages (FIG. 2B). In the presence of 300 µM DHCP, 100-fold decrease in the colony numbers was observed.

[3] = tested on: E. coli wild-type strain JM83; test: Effect of DHCP on the growth of E. coli in LB medium (Klett units); assay type: cell-based, Escherichia coli; conditions: for effect on growth: LB medium
Description: as §3
The E. coli wild-type strain JM83 [F^-araΔ (lac-proAB) rpsL(st^r)](Yanisch-Perron et al., 1985) was grown in Luria broth (LB). Media were supplemented with ampicillin (final concentration of 50 . mu.g/ml) whenever required. To check the effect of DHCP on the growth of E. coli, cells grown overnight in LB medium were diluted into fresh LB medium. After the growth reached to the Klett unit of 50, DHCP was added at various concentrations (0-400 . mu.M) and growth was further monitored. After it reached to the Klett unit of 90-100, it was diluted I O-fold into media containing respective concentrations of DHCP. […] In the presence of 400 . mu.M DHCP, cell growth stopped after 4 h of incubation.

[4] = tested on: E. coli JM83 cells harboring pSP007; test: Minimum inhibitory concentrations on LB plates, cells harboring pSP007 (dep, ORF389); assay type: cell-based, Escherichia coli; conditions: for MIC: Escherichia coli, cells with pSP007, LB plates, 37 °C, 20 h, same for 3.5 × 10^5 and 3.5 × 10^3 cells; for MIC value for cells harboring pSP007 relative to cells with pUC19: pSP007 versus pUC19
Description: as §1, §2

Row | Structure (SMILES) | MIC [1] | MIC [4] | MIC value for cells harboring pSP007 relative to cells with pUC19 [4] | also measured
1 | O=C1C=CC(O)C1O (stereo not drawn) [DHCP, 4,5-dihydroxy-2-cyclopenten-1-one] | 25 µg/mL (≈ 219 µM) | 200 µg/mL (≈ 1750 µM) | 8 times | decrease in the colony numbers ([2]; 300 μM DHCP, LB plates, 37 °C): 100 fold; colony formation ([2]; 350 μM DHCP, 1×10^4 cells plated on LB medium): no colonies were obtained; concentration at which DHCP inhibits cell growth ([2]; E. coli): ≥ 350 µM; effect on growth ([3]; 50 μM DHCP): growth was slowed after 3 h of incubation; time to reach the maximum density ([3]; 50 μM DHCP, similar to that without DHCP): 8 h; effect on growth ([3]; 100 μM DHCP): grew more slowly after 3 h incubation; maximum cell density ([3]; 100 μM DHCP, versus without DHCP): lower than that without DHCP; time after which cells stopped growing ([3]; 250 μM DHCP): 5 h; length of elongated cells (filaments) relative to control cells ([3]; 250 μM DHCP for 8 h, microscopic examination): approximately 15 fold; effect on growth ([3]; 250 μM DHCP): growth was severely impaired after 3 h of incubation; time after which cell growth stopped ([3]; 400 μM DHCP): 4 h
2 | O=C(N[C@H](CO)[C@H](O)c1ccc([N+](=O)[O-])cc1)C(Cl)Cl [chloramphenicol] | 6.25 µg/mL (≈ 19.3 µM) | 6.25 µg/mL (≈ 19.3 µM) | same | –
3 | NC[C@H]1O[C@H](O[C@H]2[C@H](O)[C@@H](O[C@H]3O[C@H](CO)[C@@H](O)[C@H](N)[C@H]3O)[C@H](N)C[C@@H]2N)[C@H](O)[C@@H](O)[C@@H]1O [kanamycin] | 25 µg/mL (≈ 51.6 µM) | 50 µg/mL (≈ 103 µM) | – | –
4 | CN[C@@H]1[C@H](O)[C@H](NC)[C@H]2O[C@@]3(O)C(=O)C[C@@H](C)O[C@H]3O[C@@H]2[C@H]1O [spectinomycin] | 12.5 µg/mL (≈ 37.6 µM) | 12.5 µg/mL (≈ 37.6 µM) | same | –
5 | CN(C)[C@@H]1C(O)=C(C(N)=O)C(=O)[C@@]2(O)C(O)=C3C(=O)c4c(O)cccc4[C@@](C)(O)[C@H]3C[C@@H]12 [tetracycline] | 3.12 µg/mL (≈ 7.03 µM) | 3.12 µg/mL (≈ 7.03 µM) | – | –

From patent publication US7476526B2, “Method of using a gene conferring resistance to 4,5-dihydroxy-2-cyclopenten-1-one (DHCP) and identifying inhibitors of a polypeptide encoded by the gene” (priority 2000, dated 2009)
